According to patent EP0450761A1, “Spirocyclic oxytocin antagonists” (MERCK & CO. INC., priority 1990, dated 1991):
One block for each compound: values may come before it.

Tests used:
AVP-V₁ sites = target: T1, AVP-V₁ sites (Rattus norvegicus, UniProt P30560); assay: [³H]AVP radioligand binding, crude membrane preparation of male rat liver (AVP-V₁ sites); settings: for inhibition at 10 µM: 10 µM test compound, % of specific [³H]AVP binding inhibited (liver), read-out: Inhibition Vasopressin V1 % inhibition @ 10; for IC50: 1 nM [³H]AVP, rat liver membranes, 30 min at 30°C, read-out: Inhibition Vasopressin V1 IC50
T1 construct: a crude membrane preparation of male rat liver (AVP-V₁ sites); from tissue; host or cells: male rat liver, crude membrane preparation
T1 sequence (P30560 whole entry): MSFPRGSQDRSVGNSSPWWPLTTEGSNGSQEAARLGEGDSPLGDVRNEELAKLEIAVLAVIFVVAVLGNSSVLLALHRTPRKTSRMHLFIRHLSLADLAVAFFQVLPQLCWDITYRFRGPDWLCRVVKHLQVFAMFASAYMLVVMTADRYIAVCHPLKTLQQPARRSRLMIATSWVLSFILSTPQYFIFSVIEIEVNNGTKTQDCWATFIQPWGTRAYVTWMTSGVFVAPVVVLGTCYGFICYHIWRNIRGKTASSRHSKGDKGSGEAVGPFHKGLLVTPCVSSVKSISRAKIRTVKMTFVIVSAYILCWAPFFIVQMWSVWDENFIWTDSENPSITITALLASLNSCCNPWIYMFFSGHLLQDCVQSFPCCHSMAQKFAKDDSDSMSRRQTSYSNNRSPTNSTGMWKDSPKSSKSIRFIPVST
From the text: (§1) *Inhibition is expressed either as IC₅₀ in µM, or as % inhibition @ a specified concentration of the test compound (µM). The IC₅₀ is the concentration of the text compound which inhibits specific binding by 50%. The % inhibition at a specified concentration of the test compound is that percentage of specific binding which is inhibited by said concentration of said test compound.

AVP-V₂ sites = target: T2, AVP-V₂ sites (Rattus norvegicus, UniProt Q00788); assay: [³H]AVP radioligand binding, crude membrane preparation of male rat kidney medulla (AVP-V₂ sites); settings: for inhibition at 10 µM: 10 µM test compound, % of specific [³H]AVP binding inhibited (kidney), read-out: Inhibition Vasopressin V2 % inhibition @ 10
T2 construct: male rat liver (AVP-V₁ sites) or kidney medulla (AVP-V₂ sites); from tissue; host or cells: male rat kidney medulla, crude membrane preparation
T2 sequence (Q00788 whole entry): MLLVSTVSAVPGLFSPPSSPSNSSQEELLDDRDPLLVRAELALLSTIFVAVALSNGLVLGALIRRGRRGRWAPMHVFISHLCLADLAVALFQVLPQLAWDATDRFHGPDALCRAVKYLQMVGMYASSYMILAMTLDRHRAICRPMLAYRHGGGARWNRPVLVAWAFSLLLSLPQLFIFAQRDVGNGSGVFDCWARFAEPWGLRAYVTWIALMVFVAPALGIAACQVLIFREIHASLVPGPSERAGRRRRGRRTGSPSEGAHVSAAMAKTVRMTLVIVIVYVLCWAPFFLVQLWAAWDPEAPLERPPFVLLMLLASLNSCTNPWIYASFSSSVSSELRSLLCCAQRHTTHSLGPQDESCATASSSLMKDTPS
From the text: as §1

uterine OT receptors = target: T3, uterine OT receptors (Rattus norvegicus, UniProt P70536); assay: [³H]OT radioligand binding to uterine OT receptors, crude membrane preparation of uteri from DES-treated rats
T3 construct: a crude membrane preparation of uteri; from tissue; host or cells: uterus of DES-treated rats, crude membrane preparation
T3 sequence (P70536 1-388): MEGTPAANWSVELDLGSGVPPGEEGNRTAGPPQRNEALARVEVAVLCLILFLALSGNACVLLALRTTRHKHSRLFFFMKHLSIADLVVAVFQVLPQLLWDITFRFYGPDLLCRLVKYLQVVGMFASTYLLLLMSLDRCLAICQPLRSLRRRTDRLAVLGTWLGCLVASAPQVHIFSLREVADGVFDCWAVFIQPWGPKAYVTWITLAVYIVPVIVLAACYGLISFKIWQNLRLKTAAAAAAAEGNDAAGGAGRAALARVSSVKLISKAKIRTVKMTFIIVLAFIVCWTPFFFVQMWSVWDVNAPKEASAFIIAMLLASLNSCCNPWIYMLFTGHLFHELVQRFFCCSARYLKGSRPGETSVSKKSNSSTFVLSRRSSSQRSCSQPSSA
Description: Competition studies were conducted at equilibrium (60 min; 22°C) using 1 nM [³H]OT in the following assay buffer: 50 mM Tris-HCl, 5 mM MgCl₂, and 0.1% BSA, pH 7.4.
as §1

Compound: CC1(C)[C@@H]2CC[C@@]1(CS(=O)(=O)N1CCC3(C=Cc4ccccc43)CC1)C(=O)C2 [Example 6]
inhibition at 10 µM (AVP-V₁ sites): 2%
inhibition at 10 µM (AVP-V₂ sites): 3%

Compound: CC1(C)[C@H]2CC[C@]1(CS(=O)(=O)N1CCC3(C=Cc4ccccc43)CC1)C(=O)C2 [Example 7]
inhibition at 10 µM (AVP-V₁ sites): 0%
inhibition at 10 µM (AVP-V₂ sites): 6%

Compound: CC1(C)[C@@H]2CC[C@@]1(CS(=O)(=O)N1CCC3(C=Cc4ccccc43)CC1)C(O)(c1ccccc1)C2 (stereo partly drawn) [Example 11]
IC50 (uterine OT receptors): 490 nM

Compound: CC1(C)[C@@H]2CC[C@@]1(CS(=O)(=O)N1CCC3(C=Cc4ccccc43)CC1)[C@](C)(O)C2 [Example 13, EXO-(1S)-1′-(((2-HYDROXY-2,7,7-TRIMETHYLBICYCLO-(2.2.1)HEPT-1-YL)METHYL)SULFONYL)SPIRO(1H-INDENE-1,4′-PIPERIDINE)]
inhibition at 10 µM (AVP-V₁ sites): 45%
inhibition at 10 µM (AVP-V₂ sites): 5%

Compound: CCC1(O)CC2CC[C@]1(CS(=O)(=O)N1CCC3(C=Cc4ccccc43)CC1)C2(C)C (stereo partly drawn) [Example 15]
IC50 (uterine OT receptors): 470 nM
IC50 (AVP-V₁ sites): ~9000 nM

Compound: COC(=O)C[C@@]1(O)C[C@H]2CC[C@]1(CS(=O)(=O)N1CCC3(C=Cc4ccccc43)CC1)C2(C)C [Example 19, (1S(1.ALPHA.,2.ALPHA.,4.ALPHA.))-2-HYDROXY-7,7-DIMETHYL-1-((SPIRO(1H-INDENE-1,4′-PIPERIDIN)-1′-YLSULFONYL)METHYL)BICYCLO(2.2.1)HEPTANE-2-ACETIC ACID METHYL ESTER]
inhibition at 10 µM (AVP-V₁ sites): 54%
inhibition at 10 µM (AVP-V₂ sites): 20%

Compound: CC1(C)[C@@H]2CC[C@@]1(CS(=O)(=O)N1CCC3(C=Cc4ccccc43)CC1)[C@@](O)(CC(=O)O)C2 [Example 20, (1S(1.ALPHA.,2.ALPHA.,4.ALPHA.))-2-HYDROXY-7,7-DIMETHYL-1-((SPIRO(1H-INDENE-1,4′-PIPERIDIN)-1′-YLSULFONYL)METHYL)-BICYCLO-(2.2.1)HEPTANE-2-ACETIC ACID]
IC50 (uterine OT receptors): 570 nM
IC50 (AVP-V₁ sites): 89000 nM
IC50 (AVP-V₂ sites; 2 nM [³H]AVP, rat kidney medulla membranes, 30 min at 30°C, read-out: Inhibition Vasopressin V2 IC50): 83000 nM

Compound: CC1(C)[C@@H]2CC[C@@]1(CS(=O)(=O)N1CCC3(C=Cc4ccccc43)CC1)C(=NO)C2 [Example 27]
IC50 (uterine OT receptors): 490 nM
inhibition at 10 µM (AVP-V₁ sites): 52%
inhibition at 10 µM (AVP-V₂ sites): 21%

Kd (uterine OT receptors; radioligand, uterus, read-out: Kd values obtained from saturation binding assay): 0.7 nM
Compound: [³H]OT [reference compound]
